Results reported in the supplement of paper PMC11451515.

Assays:
Details in all cases: 48 h
NOMO1 [1] = test: AUC of viability dose-response curve (% viability x log10 dose units); higher = less sensitive
Procedure, shortened: (§1)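 Library compounds in DMSO were applied for 48 h at 37°C at 11 threefold doses (47 μM to 0.79 nM) to medium-adapted leukemia cells in 1536-well plates holding 500 or 1000 cells/well. Luminescence from CellTiter-Glo One was normalised plate by plate against DMSO and cell-free wells. Area under the curve came from trapezoidal integration of a log-logistic fit, after scaling curves that rose above full viability and discarding those that failed quality control. The fit had four parameters and used log10 doses.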

P12-Ichikawa [2] = test: as above
Procedure, shortened: as §1

SEM cells [3] = test: as above
Procedure, shortened: as §1

SEM cells [4] = test: cell viability relative to DMSO control; higher = less cytotoxic
Procedure, shortened: (§2)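 Leukemia cells (NOMO1 or SEM, 500 cells/well; P12-Ichikawa, 1000 cells/well) were seeded in 5 μl in 1536-well plates after at least four passages of adaptation to each medium. They received library compounds in DMSO by pin dosing, 11 threefold points from 47 μM to 0.79 nM. Luminescence with CellTiter-Glo One was read after 48 h at 37°C. Viability is stated per plate relative to DMSO wells, with cell-free wells as background.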

NOMO1 [5] = test: as above
Procedure, shortened: as §2

P12-Ichikawa [6] = test: as above
Procedure, shortened: as §2

COc1cc(F)c(C(C)C)cc1-c1ccc(C(F)(F)F)cc1CN1C(=O)O[C@H](c2cc(C(F)(F)F)cc(C(F)(F)F)c2)[C@@H]1C
AUC of viability dose-response curve
Details	NOMO1 [1]	P12-Ichikawa [2]	SEM cells [3]
HPLM + 10% dialyzed FBS	375	438	457
RPMI 5 mM glucose + 10% FBS	438	451	445
RPMI 5 mM glucose + 10% dialyzed FBS	444	459	441

CN1CCN(c2ccc(C(=O)Nc3n[nH]c4ccc(Cc5cc(F)cc(F)c5)cc34)c(NC3CCOCC3)c2)CC1
AUC of viability dose-response curve
Details	HPLM + 10% dialyzed FBS	RPMI 5 mM glucose + 10% FBS	RPMI 5 mM glucose + 10% dialyzed FBS
P12-Ichikawa [2]	440	440	404
SEM cells [3]	341	352	354

N/C1=N/C(=O)C/2=C(NC[C@@H](CNC3=CC=C(C=C3)C(=O)N[C@@H](CCC([O-])=O)C([O-])=O)N2C=O)\N1
SEM cells [4], HPLM + 10% dialyzed FBS
Details	cell viability [%]
0.000781 µM	103
0.00234 µM	114
0.00702 µM	120
0.0211 µM	115
0.0632 µM	131
0.19 µM	114
0.569 µM	117
1.71 µM	116
5.12 µM	119
15.4 µM	123
46.1 µM	136

AUC of viability dose-response curve
Details	HPLM + 10% dialyzed FBS	RPMI 5 mM glucose + 10% FBS	RPMI 5 mM glucose + 10% dialyzed FBS
NOMO1 [1]	319	307	321
SEM cells [3]	446	465	437

Cc1c(NC(=O)OC[C@@H]2COCCN2)cn2ncnc(Nc3ccc4c(cnn4Cc4cccc(F)c4)c3)c12
cell viability [%]
Details	NOMO1 [5]	P12-Ichikawa [6]	SEM cells [4]
HPLM + 10% dialyzed FBS, 0.000781 µM	67.5	80	74.5
HPLM + 10% dialyzed FBS, 0.00234 µM	75.4	83.9	72
HPLM + 10% dialyzed FBS, 0.00702 µM	80.3	91.5	85.6
HPLM + 10% dialyzed FBS, 0.0211 µM	90.6	90	85.8
HPLM + 10% dialyzed FBS, 0.0632 µM	93.2	94.8	91.5
HPLM + 10% dialyzed FBS, 0.19 µM	102	96.5	106
HPLM + 10% dialyzed FBS, 0.569 µM	92.8	99.8	94.5
HPLM + 10% dialyzed FBS, 1.71 µM	76	94.3	96.8
HPLM + 10% dialyzed FBS, 5.12 µM	88.7	86.8	103
HPLM + 10% dialyzed FBS, 15.4 µM	60.5	87.8	21.7
HPLM + 10% dialyzed FBS, 46.1 µM	18.6	50.6	25
RPMI 5 mM glucose + 10% FBS, 0.000781 µM	97.2	83	95.5
RPMI 5 mM glucose + 10% FBS, 0.00234 µM	86.6	84.4	95.2
RPMI 5 mM glucose + 10% FBS, 0.00702 µM	85.2	90.8	103
RPMI 5 mM glucose + 10% FBS, 0.0211 µM	93.5	87.9	103
RPMI 5 mM glucose + 10% FBS, 0.0632 µM	91.6	92.9	116
RPMI 5 mM glucose + 10% FBS, 0.19 µM	89.5	85.8	102
RPMI 5 mM glucose + 10% FBS, 0.569 µM	89.9	86	109
RPMI 5 mM glucose + 10% FBS, 1.71 µM	92.7	92.2	104
RPMI 5 mM glucose + 10% FBS, 5.12 µM	84.6	76.6	98.6
RPMI 5 mM glucose + 10% FBS, 15.4 µM	74.9	81.3	15.4
RPMI 5 mM glucose + 10% FBS, 46.1 µM	40	48.3	10.8
RPMI 5 mM glucose + 10% dialyzed FBS, 0.000781 µM	77.6	83.4	71.7
RPMI 5 mM glucose + 10% dialyzed FBS, 0.00234 µM	80.4	84.4	62.1
RPMI 5 mM glucose + 10% dialyzed FBS, 0.00702 µM	86.3	88.9	78.1
RPMI 5 mM glucose + 10% dialyzed FBS, 0.0211 µM	85.8	97.3	90.3
RPMI 5 mM glucose + 10% dialyzed FBS, 0.0632 µM	88.3	100	74.8
RPMI 5 mM glucose + 10% dialyzed FBS, 0.19 µM	86.5	88.1	84
RPMI 5 mM glucose + 10% dialyzed FBS, 0.569 µM	89	89.2	88.5
RPMI 5 mM glucose + 10% dialyzed FBS, 1.71 µM	91.7	92.9	99.6
RPMI 5 mM glucose + 10% dialyzed FBS, 5.12 µM	89.4	91.3	85.6
RPMI 5 mM glucose + 10% dialyzed FBS, 15.4 µM	80.3	82.8	16.8
RPMI 5 mM glucose + 10% dialyzed FBS, 46.1 µM	37.5	40.4	9.72

AUC of viability dose-response curve
Details	HPLM + 10% dialyzed FBS	RPMI 5 mM glucose + 10% FBS	RPMI 5 mM glucose + 10% dialyzed FBS
NOMO1 [1]	379	410	397
P12-Ichikawa [2]	422	401	417

C[C@@H]1[C@H](O)[C@@H](C)C=CC=CCCC=CC=CC=CC=C[C@H](O[C@H]2O[C@@H](C)[C@H](O)[C@@H](N)[C@H]2O)CC2O[C@](O)(C[C@@H](O)[C@H](O)CC[C@@H](O)C[C@@H](O)C[C@@H](O)CC(=O)O[C@H]1C)C[C@H](O)[C@H]2C(=O)O
AUC of viability dose-response curve
Details	NOMO1 [1]	P12-Ichikawa [2]	SEM cells [3]
HPLM + 10% dialyzed FBS	458	459	451
RPMI 5 mM glucose + 10% FBS	432	429	448
RPMI 5 mM glucose + 10% dialyzed FBS	432	456	447

NC/1=N/[C@]2(COC[C@H]2CS1)C3=CC(=CC=C3F)NC(=O)C4=NC=C(F)C=C4
cell viability [%], SEM cells [4]
Details	HPLM + 10% dialyzed FBS	RPMI 5 mM glucose + 10% FBS
0.000781 µM	90.8	119
0.00234 µM	111	120
0.00702 µM	131	129
0.0211 µM	127	135
0.0632 µM	132	138
0.19 µM	140	149
0.569 µM	130	127
1.71 µM	135	141
5.12 µM	136	155
15.4 µM	147	29
46.1 µM	110	7.7

AUC of viability dose-response curve
Details	NOMO1 [1]	P12-Ichikawa [2]	SEM cells [3]
HPLM + 10% dialyzed FBS	324	350	461
RPMI 5 mM glucose + 10% FBS	302	348	417
RPMI 5 mM glucose + 10% dialyzed FBS	313	374	471

CC[C@@]1(O)C(=O)OC\C2=C1\C=C3/N(CC4=CC5=C(C=CC(=C5CN(C)C)O)N=C34)C2=O
SEM cells [4], RPMI 5 mM glucose + 10% FBS
Details	cell viability [%]
0.000781 µM	101
0.00234 µM	107
0.00702 µM	87.2
0.0211 µM	107
0.0632 µM	68.6
0.19 µM	22.4
0.569 µM	11.5
1.71 µM	12.2
5.12 µM	6.44
15.4 µM	4.3
46.1 µM	4.41

AUC of viability dose-response curve
Details	NOMO1 [1]	P12-Ichikawa [2]	SEM cells [3]
HPLM + 10% dialyzed FBS	306	225	245
RPMI 5 mM glucose + 10% FBS	312	217	226
RPMI 5 mM glucose + 10% dialyzed FBS	324	215	230
